# Reference: the Kinase Knowledgebase extract (Sharma et al. 2016)
# Biological target: CDK2 (UniProt P24941)
# Test: Enzyme Assay
row,IC50 [µM],SMILES
1,< 20,CN1CCC(NC(=O)c2n[nH]cc2NC(=O)c2ccccc2OC(C)(C)C)CC1
2,< 20,CC(NC(=O)c1n[nH]cc1NC(=O)c1c(F)cccc1F)c1ccccc1 (stereo not drawn)
3,< 20,COc1cccc(F)c1C(=O)Nc1c[nH]nc1C(=O)NC1CCC(C(C)(C)C)CC1 (stereo not drawn)
4,< 20,O=C(NC1CCN(c2ccccn2)CC1)c1n[nH]cc1NC(=O)c1c(F)cccc1F
5,< 20,CO[C@H]1CC[C@H](NC(=O)c2n[nH]cc2NC(=O)c2c(F)cccc2F)CC1
6,< 20,O=C(N[C@H]1CC[C@H](O)CC1)c1n[nH]cc1NC(=O)c1c(F)cccc1F
7,< 20,O=C1CC[C@H](NC(=O)c2n[nH]cc2NC(=O)c2c(F)cccc2F)CN1
8,< 20,CN1CCN([C@H]2CC[C@@H](NC(=O)c3n[nH]cc3NC(=O)c3c(F)cccc3F)CC2)CC1
9,< 20,COc1cccc(F)c1C(=O)Nc1c[nH]nc1C(=O)NC1CCN(C(=O)OC(C)(C)C)CC1
10,< 20,O=C(N[C@H]1CC[C@@H](NC2CCOCC2)CC1)c1n[nH]cc1NC(=O)c1c(F)cccc1F
11,< 20,CS(=O)(=O)NC[C@H]1CC[C@H](NC(=O)c2n[nH]cc2NC(=O)c2c(F)cccc2F)CC1
12,< 20,CN(C)[C@H]1CC[C@H](NC(=O)c2n[nH]cc2NC(=O)c2c(F)cccc2F)CC1
13,< 750,CC(C)(C)C1CCC(NC(=O)c2n[nH]cc2NC(=O)c2cc(F)cc(F)c2)CC1 (stereo not drawn)
14,< 20,N[C@H]1CC[C@H](NC(=O)c2n[nH]cc2NC(=O)c2c(F)cccc2F)CC1
15,< 20,O=C(N[C@H]1CC[C@H](NC2CCOCC2)CC1)c1n[nH]cc1NC(=O)c1c(F)cccc1F
16,< 20,CC1CCC(NC(=O)c2n[nH]cc2NC(=O)c2c(F)cccc2F)CC1 (stereo not drawn)
17,< 20,COc1ccc(F)cc1C(=O)Nc1c[nH]nc1C(=O)NC1CCN(C)CC1
18,< 20,O=C(N[C@H]1CC[C@@H](N2CCOCC2)CC1)c1n[nH]cc1NC(=O)c1c(F)cccc1F
19,< 20,CCOc1ccccc1C(=O)Nc1c[nH]nc1C(=O)NC1CCNCC1
20,< 20,O=C(Nc1c[nH]nc1C(=O)NC1CCNCC1)c1ccc(Cl)cc1
21,< 20,O=C(N[C@H]1CCCNC1)c1n[nH]cc1NC(=O)c1c(F)cccc1F
22,< 750,O=C(Nc1c[nH]nc1C(=O)NC1CCNCC1)c1ccccc1
23,< 750,CC(C)(C)C1CCC(NC(=O)c2n[nH]cc2NC(=O)c2ccc(Cl)cc2)CC1 (stereo not drawn)
24,< 20,CC(C)(C)OC(=O)N1CCC(NC(=O)c2n[nH]cc2NC(=O)c2ccc(F)cc2)CC1
25,< 20,CC(C)(C)C1CCC(NC(=O)c2n[nH]cc2NC(=O)c2ccc(CN3CCCC3)o2)CC1 (stereo not drawn)

row,IC50 [µM],SMILES
1,< 20,CC(C)(C)OC(=O)N1CCC(NC(=O)c2n[nH]cc2NC(=O)c2c(F)cc(F)cc2F)CC1
2,< 20,CN1CCN(c2cc(F)cc(C(=O)Nc3c[nH]nc3C(=O)NC3CCCCC3)c2)CC1
3,< 20,O=C(Nc1c[nH]nc1C(=O)NCC1CC1)c1ccc(N2CCOCC2)cc1Cl
4,< 20,O=C(NC1CCC(N2CCSCC2)CC1)c1n[nH]cc1NC(=O)c1c(F)cccc1F (stereo not drawn)
5,< 20,NC[C@H]1CC[C@H](NC(=O)c2n[nH]cc2NC(=O)c2c(F)cccc2F)CC1
6,< 20,O=C(NCc1ccco1)c1n[nH]cc1NC(=O)c1c(F)cccc1F
7,< 750,Cc1onc(-c2ccccc2)c1C(=O)Nc1c[nH]nc1C(=O)NC1CCNCC1
8,< 20,COc1cccc(F)c1C(=O)Nc1c[nH]nc1C(=O)N[C@H]1CC[C@H](O)CC1
9,< 20,O=C(Nc1c[nH]nc1C(=O)NC1CCNCC1)c1cc(-c2ccccc2)cs1
10,< 20,O=C(Nc1c[nH]nc1C(=O)NC1CCNCC1)c1ccccc1OCc1ccccc1
11,< 20,CO[C@H]1CC[C@H](NC(=O)c2n[nH]cc2NC(=O)c2c(Cl)cccc2Cl)CC1
12,< 20,CC(C)(C)OC(=O)N1CCC(NC(=O)c2n[nH]cc2NC(=O)c2ccccc2)CC1
13,< 20,CN1CCC(NC(=O)c2n[nH]cc2NC(=O)c2ccccc2Cl)CC1
14,< 20,O=C(NC1CCNCC1)c1n[nH]cc1NC(=O)c1c(F)cc(F)cc1F
15,< 20,O=C(NC1CCN(c2ncccn2)CC1)c1n[nH]cc1NC(=O)c1c(F)cccc1F
16,< 20,O=C(N[C@H]1CCCNC1)c1n[nH]cc1NC(=O)c1c(Cl)cccc1Cl
17,< 750,CC(C)(C)C1CCC(NC(=O)c2n[nH]cc2NC(=O)c2ccccc2)CC1 (stereo not drawn)
18,< 20,CN1CCC(NC(=O)c2n[nH]cc2NC(=O)c2c(Cl)cccc2Cl)CC1
19,< 20,CN1CCC(NC(=O)c2n[nH]cc2NC(=O)c2cc(Cl)ccc2Cl)CC1
20,< 20,O=C(NCC1CCNCC1)c1n[nH]cc1NC(=O)c1c(F)cccc1F
21,< 20,O=C(Nc1c[nH]nc1C(=O)NC1CCNCC1)c1ccccc1OC(F)F
22,< 20,CC(C)(C)CNC(=O)Nc1c[nH]nc1C(=O)N[C@H]1CC[C@H](O)CC1
23,< 20,O=C(Nc1c[nH]nc1C(=O)NCC1CC1)c1cccc2c1OCCO2
24,< 20,O=C(NC1CCNCC1)c1n[nH]cc1NC(=O)c1c(Cl)cncc1Cl
25,< 20,CN1CCC(NC(=O)c2n[nH]cc2NC(=O)c2c(F)cccc2Cl)CC1

row,IC50 [µM],SMILES
1,< 20,COc1ccccc1C(=O)Nc1c[nH]nc1C(=O)N[C@H]1CC[C@H](O)CC1
2,< 20,O=C(Nc1c[nH]nc1C(=O)N[C@H]1CC[C@H](O)CC1)c1cccc2c1OCCO2
3,< 20,CN1CCC(NC(=O)c2n[nH]cc2NC(=O)c2cccc(Cl)c2Cl)CC1
4,< 20,O=C(N[C@@H]1CCNC1)c1n[nH]cc1NC(=O)c1c(F)cccc1F
5,< 20,O=C(N[C@H]1CC[C@H](N2CCS(=O)(=O)CC2)CC1)c1n[nH]cc1NC(=O)c1c(F)cccc1F
6,< 20,CN1CCN([C@H]2CC[C@H](NC(=O)c3n[nH]cc3NC(=O)c3c(F)cccc3F)CC2)CC1
7,< 20,COc1cccc(F)c1C(=O)Nc1c[nH]nc1C(=O)NC1CCNCC1
8,< 20,O=C(N[C@H]1CC[C@H](N2CCOCC2)CC1)c1n[nH]cc1NC(=O)c1c(F)cccc1F
9,< 750,O=C(NCc1ccccc1)Nc1c[nH]nc1C(=O)N[C@H]1CC[C@H](O)CC1
10,< 20,CC(C)(C)NC(=O)Nc1c[nH]nc1C(=O)NCC1CC1
11,< 20,O=C(NC1CCN(CC2CCOC2)CC1)c1n[nH]cc1NC(=O)c1c(F)cccc1F (stereo not drawn)
12,< 20,O=C(NC1CCC(CO)CC1)c1n[nH]cc1NC(=O)c1c(F)cccc1F (stereo not drawn)
13,< 750,CC(C)(C)C1CCC(NC(=O)c2n[nH]cc2NC(=O)c2ccc(OC(F)F)cc2)CC1 (stereo not drawn)
14,< 20,O=C(N[C@H]1CC[C@H](O)CC1)c1n[nH]cc1NC(=O)c1c(F)cccc1Cl
15,< 20,CN1CCC(C(=O)Nc2c[nH]nc2C(=O)NCC2CC2)CC1
16,< 20,O=C(Nc1c[nH]nc1C(=O)NC1CCNCC1)c1ccc(OC(F)F)cc1
17,< 20,CC(C)N1CCC(NC(=O)c2n[nH]cc2NC(=O)c2c(F)cccc2F)CC1
18,< 20,O=C(NC[C@H]1CC[C@H](NC(=O)c2n[nH]cc2NC(=O)c2c(F)cccc2F)CC1)OCc1ccccc1
19,< 750,CC(C)(C)C1CCC(NC(=O)c2n[nH]cc2NC(=O)c2ccc(F)cc2)CC1 (stereo not drawn)
20,< 20,O=C(NC1CCN(CC2CC2)CC1)c1n[nH]cc1NC(=O)c1c(F)cccc1F
21,< 20,O=C(Nc1c[nH]nc1C(=O)NC1CCNCC1)c1ccccc1OC(F)(F)F
22,< 20,O=C(Nc1c[nH]nc1C(=O)NC1CCNCC1)c1ccccc1Br
23,< 20,CN1CCC(NC(=O)c2n[nH]cc2NC(=O)c2cccc3c2OCCO3)CC1
